The values that follow come from publication PMC12751014, “Non-Catalytic Inhibitors of the p38/MK2 Interface: Repurposing Approved Drugs to Target Neuroinflammation in Alzheimer’s Disease” (Journal of Medicinal Chemistry, 2025).

“Also recorded” adds a separate entry of the source.

As usually defined, the IC50 is the midpoint of a concentration-inhibition curve.

The target in assay [1] is T1, p38/MK2 interaction (Homo sapiens, UniProt Q16539). In words: TR-FRET assay with purified recombinant His-p38 and GST-MK2. As to conditions: side-by-side TR-FRET, 2h incubation. It is filed as binding. Here is the method:
ENSG00000112062, UniProt ID: Q16539-1) was cloned into a pMCSG7 vector and transformed into Escherichia coli strain BL21(DE3). […] The resuspended cells were lysed through sonication. The lysate was centrifuged for 20 min at 70,000g at 4 °C and the clarified supernatant was passed through a gravity column containing 2 mL Ni-NTA resin pre-equilibrated with equilibration buffer. The resin was then washed with 25 column volumes of equilibration buffer supplemented with 40 mM imidazole, and the protein was eluted with equilibration buffer supplemented with 200 mM imidazole. […] The purity of the enzyme was verified by sodium dodecyl sulfate-polyacrylamide gel electrophoresis (SDS-PAGE) with Coomassie staining, aliquots flash frozen in liquid nitrogen, and stored at -80 °C.

Assay [2] concerns the target T1, p38/MK2 interaction. In words: TR-FRET ultra-high-throughput screening (uHTS), 1536-well, HEK293T lysate VF-p38α / GST-MK2. The assay is classed as binding. More on the design: inhibition of p38/MK2 interaction, primary screen: concentration or dose not given beside the values. On the technique in general: In TR-FRET formats the signal depends on donor and acceptor labels being close together.

Assay [3] relates to HMC3 microglial cells. In words: qRT-PCR of LPS-induced cytokine expression in HMC3 microglial cells. The assay is classed as cell-based, human. As to conditions: HMC3, 5 μM compound 1 h before 100 ng/mL LPS 4 h. Here is the method: HMC3 cells were treated with 100 ng/mL E. coli LPS (Sigma-Aldrich, catalog no. L4005) for 4 h in DMEM media. […] Following pretreatment, iMGLs were challenged with 100 ng/mL LPS and 20 ng/mL interferon-γ (IFN-γ) for 24 h to induce an inflammatory response. At the end of the stimulation, cell lysates were collected for qPCR analysis of TNF-α […] gene expression. Total RNA isolation from cell samples was conducted using the RNeasy Plus kit (Qiagen, catalog no. 74134) according to manufacturer instructions and treated with DNase I (Invitrogen, catalog no. 18068-015). Extracted RNA was quantified using the Nanodrop One Spectrophotometer (Thermo Scientific) and then reverse-transcribed into cDNA in equal quantity (<1000 ng/reaction) with the SuperScript III System (Invitrogen, catalog no. 18080-051) following manufacturer directions. cDNA sample was treated with RNase H (Invitrogen, catalog no. 18021014) and diluted to 4 ng/μL equivalent of the starting total RNA. qPCR was performed in 96-well PCR plates (BioRad, catalog no. HSP9601) using the Realplex4Mastercycler (Eppendorf). Each reaction well combines 5 μL cDNA sample, 10 μL 2X SYBR Green Supermix (BioRad, catalog no. 1725271), 1 μL 5 μM primer mix for each target gene, and nuclease-free water up to 20 μL. […] The primer sequences used were: TNFα forward [NT], reverse [NT]-6 forward [NT], reverse [NT]-1β forward [NT], reverse [NT] Each gene was expression-normalized against the housekeeping gene GAPDH with the primer sequences: forward [NT], reverse [NT] Primers were obtained from Integrated DNA Technologies in lyophilized form. The cycler program was set to denaturation at 95 °C for 15 s, followed by annealing and extension at 60 °C for 60 s, repeated for 40 PCR cycles. Melting curve analyses were performed for each sample to ensure primer specificity. The experiment was performed in biological quadruplicates and technical quadruplicates.
(In general: Real-time PCR tracks product formation cycle by cycle.)

Assay [4] has as its system human iPSC-derived microglia (iMGL). In words: qRT-PCR of LPS/IFNγ-induced TNF-α expression in iPSC-derived microglia (iMGL). It is filed as cell-based. As to conditions: 5 μM compound 1 h before LPS/IFN-γ 24 h.
The target in assay [5] is T2, endogenous p38/MK2 complex (Homo sapiens, UniProt Q16539).
T2 construct: endogenous in cells; host or cells: HMC3 (ATCC CRL-3304)
In words: Co-immunoprecipitation of endogenous p38/MK2 complex in HMC3 cells. It is filed as cell-based. The note with it: HMC3 cell lysate. As for the experimental part: HMC3 cells were lysed with 1% NP-40 lysis buffer, as described above. Clear cell lysate was incubated with equilibrated MK2-Trap Agarose beads (ChromoTek, catalog no. mta-20) or Binding Control Agarose Beads (Chromotek, catalog no. bab-20) and compounds or DMSO at 4 °C for 2 h. Immunoprecipitates were washed three times with 1% NP-40 lysis buffer. Samples were boiled in 1X SDS-PAGE sample buffer (BioRad, catalog no. 1610747) for 5 min before analysis by Western blotting.
Proteins in each sample were separated by SDS-PAGE at 200 V for 40 min using 12.5% acrylamide gels. Transfer to nitrocellulose membranes was completed using the Trans-Blot Turbo Transfer System (BioRad) in TBT buffer (BioRad, catalog no. 10026938). Thirty min incubation in 5% nonfat dry milk (BioRad, catalog no. 170–6404) in TBST buffer (20 mM Tris-base, 150 mM NaCl, and 0.05% Tween 20) at room temperature was used to block membranes. p38α MAPK mouse mAb (Cell Signaling Technology, catalog no. 9217) was used to blot the membrane at 4 °C overnight. […] The wash step was repeated, and the blot was imaged with a ChemiDoc imaging system (BioRad). The SuperSignal West Pico PLUS Chemiluminescent Substrate (Thermo Scientific, catalog no. 34580) was used for developing membranes. Blotting of MK2 was then started with the removal of p38α antibodies using a striping buffer (Thermal Scientific, catalog no. 46430). […]

Assay [6] concerns the target recombinant His-tagged p38 (Homo sapiens, UniProt Q16539).
Assay [7] concerns the target p38α. The note with it: systematic kinase profiling; reference number not given; read-out: K d for p38α; cited from earlier work.
Assay [8] concerns p38α. The note with it: systematic kinase profiling; reference number not given; read-out: IC50, inhibition of p38α catalysis; cited from earlier work.

T1 sequence (Q16539 whole entry): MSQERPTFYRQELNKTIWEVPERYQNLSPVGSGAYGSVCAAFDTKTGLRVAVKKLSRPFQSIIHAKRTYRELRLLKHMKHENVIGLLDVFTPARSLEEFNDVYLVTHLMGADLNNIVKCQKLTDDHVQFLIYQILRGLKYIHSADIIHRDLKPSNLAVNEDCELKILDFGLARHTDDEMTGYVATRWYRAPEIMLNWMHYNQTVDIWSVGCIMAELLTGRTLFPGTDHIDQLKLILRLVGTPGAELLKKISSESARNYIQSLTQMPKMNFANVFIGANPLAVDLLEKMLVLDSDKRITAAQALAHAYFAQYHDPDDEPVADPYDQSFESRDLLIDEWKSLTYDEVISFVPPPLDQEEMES
T2 sequence (Q16539 whole entry, one chain of several): as the sequence (Q16539 whole entry) above
recombinant His-tagged p38, sequence (Q16539 whole entry): as above

Regarding `Cc1cn(-c2cc(NC(=O)c3ccc(C)c(Nc4nccc(-c5cccnc5)n4)c3)cc(C(F)(F)F)c2)cn1` [Nilotinib, 4-methyl-N-[3-(4-methylimidazol-1-yl)-5-(trifluoromethyl)phenyl]-3-[(4-pyridin-3-ylpyrimidin-2-yl)amino]benzamide], the “maximal inhibition of p38/MK2 PPI” value in assay [1] was around 75%. Besides, the “inhibition of p38/MK2 interaction, primary screen” value in assay [2] (relative to DMSO control, 1536-well) is listed as at least 50%. Moreover, the Pct of control in assay [2] (uHTS TR-FRET signal, Emory Enriched Library) is reported as 8.91 Pct of control. The “LPS-induced TNF-α, IL-6, and IL-1β expression” value in assay [3] is “significantly (p-value <0.05) suppresses; also recorded: significantly reduced”. Also, the “LPS/IFNγ-induced TNF-α expression” value in assay [4] is reported as “suppresses; also recorded: suppression”. The results for the “endogenous p38/MK2 complex formation (co-IP)” value in assay [5] and in assay [5] (listed as nilotinib) were “disrupts the endogenous p38/MK2 complex” and “decreased p38/MK2 complex formation”, respectively. The “ΔT max (thermal stabilization)” value in assay [6] is 8.22 °C. Besides, the Kd in assay [7] is 100 nM. In addition, the IC50 in assay [8] was around 2200 nM.
